Assay results as given in article doi:10.1101/2023.11.24.568596v1 (biorxiv, 2023).

Experiments:
Details in all cases: binder
CaMK2d = CaMK2d (Homo sapiens, UniProt Q13557)
BIKE = BIKE (Homo sapiens, UniProt Q9NSY1)
BRD4 = BRD4 (Homo sapiens, UniProt O60885)
CK2a1 = CK2a1 (Homo sapiens, UniProt P68400)
CaMK1d = CaMK1d (Homo sapiens, UniProt Q8IU85)
EphB1 = target: T1, EphB1 (Homo sapiens, UniProt P54762)
T1 sequence (P54762 1-984): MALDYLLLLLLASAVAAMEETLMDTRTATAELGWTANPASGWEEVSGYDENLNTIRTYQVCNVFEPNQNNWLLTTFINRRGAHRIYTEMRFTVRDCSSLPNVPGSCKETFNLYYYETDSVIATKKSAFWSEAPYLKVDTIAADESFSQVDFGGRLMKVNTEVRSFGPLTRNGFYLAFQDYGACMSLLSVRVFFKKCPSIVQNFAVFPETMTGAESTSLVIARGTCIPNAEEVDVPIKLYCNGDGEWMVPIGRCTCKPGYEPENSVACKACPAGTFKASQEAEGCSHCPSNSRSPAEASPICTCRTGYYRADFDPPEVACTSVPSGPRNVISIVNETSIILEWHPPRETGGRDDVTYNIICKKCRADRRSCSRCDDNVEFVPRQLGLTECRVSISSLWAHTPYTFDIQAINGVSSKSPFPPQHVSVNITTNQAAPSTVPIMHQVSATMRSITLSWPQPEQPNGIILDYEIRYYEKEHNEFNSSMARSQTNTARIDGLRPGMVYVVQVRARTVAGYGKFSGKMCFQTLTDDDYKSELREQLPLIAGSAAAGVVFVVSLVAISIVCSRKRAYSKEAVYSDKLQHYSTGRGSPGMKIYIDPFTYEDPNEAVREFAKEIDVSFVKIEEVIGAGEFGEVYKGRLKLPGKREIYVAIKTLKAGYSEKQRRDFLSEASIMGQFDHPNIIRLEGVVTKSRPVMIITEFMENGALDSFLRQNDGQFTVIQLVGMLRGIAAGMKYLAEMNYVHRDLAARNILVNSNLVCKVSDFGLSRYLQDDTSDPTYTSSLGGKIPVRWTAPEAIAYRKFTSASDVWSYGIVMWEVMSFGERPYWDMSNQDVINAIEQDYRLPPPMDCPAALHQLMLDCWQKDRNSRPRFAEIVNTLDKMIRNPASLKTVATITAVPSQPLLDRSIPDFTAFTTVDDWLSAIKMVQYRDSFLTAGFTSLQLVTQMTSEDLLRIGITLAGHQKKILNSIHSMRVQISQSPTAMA

JNK2 = JNK2 (Homo sapiens, UniProt P45984)
MARK4 = target: T2, MARK4 (Homo sapiens, UniProt Q96L34)
T2 sequence (Q96L34 1-752): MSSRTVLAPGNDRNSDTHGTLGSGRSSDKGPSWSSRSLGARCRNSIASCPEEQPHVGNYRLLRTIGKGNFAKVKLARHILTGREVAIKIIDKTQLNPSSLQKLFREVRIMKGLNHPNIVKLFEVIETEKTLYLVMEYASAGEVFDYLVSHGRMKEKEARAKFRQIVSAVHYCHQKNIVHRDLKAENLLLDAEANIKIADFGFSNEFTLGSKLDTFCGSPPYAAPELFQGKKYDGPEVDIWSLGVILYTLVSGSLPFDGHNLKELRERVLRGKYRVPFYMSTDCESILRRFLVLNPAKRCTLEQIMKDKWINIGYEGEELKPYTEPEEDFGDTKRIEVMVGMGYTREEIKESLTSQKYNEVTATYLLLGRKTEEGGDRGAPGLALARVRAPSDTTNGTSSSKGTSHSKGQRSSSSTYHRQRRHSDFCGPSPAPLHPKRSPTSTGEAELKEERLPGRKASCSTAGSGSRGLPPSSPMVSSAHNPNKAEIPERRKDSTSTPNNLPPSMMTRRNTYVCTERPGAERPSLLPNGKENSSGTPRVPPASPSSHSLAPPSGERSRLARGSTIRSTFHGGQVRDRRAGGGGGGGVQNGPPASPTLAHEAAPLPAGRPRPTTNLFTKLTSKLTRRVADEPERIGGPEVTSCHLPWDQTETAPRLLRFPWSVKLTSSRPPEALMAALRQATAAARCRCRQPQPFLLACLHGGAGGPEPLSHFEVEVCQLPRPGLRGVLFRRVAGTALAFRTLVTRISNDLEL

OSR1 = OSR1 (Homo sapiens, UniProt O95747)
SRPK1 = SRPK1 (Homo sapiens, UniProt Q96SB4)
Chain of SRPK1 (Q96SB4 whole entry): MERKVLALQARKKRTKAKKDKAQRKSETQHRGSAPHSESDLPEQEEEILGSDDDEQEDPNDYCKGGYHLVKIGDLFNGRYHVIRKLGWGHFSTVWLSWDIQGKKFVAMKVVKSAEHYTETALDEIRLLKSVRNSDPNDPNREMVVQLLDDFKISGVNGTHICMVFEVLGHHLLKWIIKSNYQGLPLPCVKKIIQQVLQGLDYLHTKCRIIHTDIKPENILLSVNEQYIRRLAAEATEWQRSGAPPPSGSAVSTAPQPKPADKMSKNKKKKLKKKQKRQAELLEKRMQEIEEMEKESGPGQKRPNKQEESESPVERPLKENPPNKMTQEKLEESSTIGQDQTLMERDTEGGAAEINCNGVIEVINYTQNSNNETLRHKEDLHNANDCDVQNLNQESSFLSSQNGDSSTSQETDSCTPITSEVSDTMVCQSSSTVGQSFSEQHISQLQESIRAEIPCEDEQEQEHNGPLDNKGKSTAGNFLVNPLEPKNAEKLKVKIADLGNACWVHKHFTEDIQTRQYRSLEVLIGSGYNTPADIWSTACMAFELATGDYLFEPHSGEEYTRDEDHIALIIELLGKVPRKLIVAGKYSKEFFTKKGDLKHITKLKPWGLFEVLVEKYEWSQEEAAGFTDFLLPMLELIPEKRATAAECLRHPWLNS

Chain of CaMK2d (Q13557 whole entry): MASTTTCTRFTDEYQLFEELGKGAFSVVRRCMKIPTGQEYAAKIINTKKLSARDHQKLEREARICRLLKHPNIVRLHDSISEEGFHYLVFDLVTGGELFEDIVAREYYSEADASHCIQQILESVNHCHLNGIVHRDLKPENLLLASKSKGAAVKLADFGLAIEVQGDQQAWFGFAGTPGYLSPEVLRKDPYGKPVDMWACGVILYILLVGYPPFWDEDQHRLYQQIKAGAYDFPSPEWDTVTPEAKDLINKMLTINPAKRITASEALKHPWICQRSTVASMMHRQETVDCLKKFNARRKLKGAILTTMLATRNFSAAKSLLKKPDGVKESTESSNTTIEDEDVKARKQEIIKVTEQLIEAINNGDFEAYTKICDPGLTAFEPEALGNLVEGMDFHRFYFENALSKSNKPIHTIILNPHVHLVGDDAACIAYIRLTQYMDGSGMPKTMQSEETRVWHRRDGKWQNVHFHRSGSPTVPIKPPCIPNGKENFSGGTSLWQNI
Chain of BIKE (Q9NSY1 whole entry): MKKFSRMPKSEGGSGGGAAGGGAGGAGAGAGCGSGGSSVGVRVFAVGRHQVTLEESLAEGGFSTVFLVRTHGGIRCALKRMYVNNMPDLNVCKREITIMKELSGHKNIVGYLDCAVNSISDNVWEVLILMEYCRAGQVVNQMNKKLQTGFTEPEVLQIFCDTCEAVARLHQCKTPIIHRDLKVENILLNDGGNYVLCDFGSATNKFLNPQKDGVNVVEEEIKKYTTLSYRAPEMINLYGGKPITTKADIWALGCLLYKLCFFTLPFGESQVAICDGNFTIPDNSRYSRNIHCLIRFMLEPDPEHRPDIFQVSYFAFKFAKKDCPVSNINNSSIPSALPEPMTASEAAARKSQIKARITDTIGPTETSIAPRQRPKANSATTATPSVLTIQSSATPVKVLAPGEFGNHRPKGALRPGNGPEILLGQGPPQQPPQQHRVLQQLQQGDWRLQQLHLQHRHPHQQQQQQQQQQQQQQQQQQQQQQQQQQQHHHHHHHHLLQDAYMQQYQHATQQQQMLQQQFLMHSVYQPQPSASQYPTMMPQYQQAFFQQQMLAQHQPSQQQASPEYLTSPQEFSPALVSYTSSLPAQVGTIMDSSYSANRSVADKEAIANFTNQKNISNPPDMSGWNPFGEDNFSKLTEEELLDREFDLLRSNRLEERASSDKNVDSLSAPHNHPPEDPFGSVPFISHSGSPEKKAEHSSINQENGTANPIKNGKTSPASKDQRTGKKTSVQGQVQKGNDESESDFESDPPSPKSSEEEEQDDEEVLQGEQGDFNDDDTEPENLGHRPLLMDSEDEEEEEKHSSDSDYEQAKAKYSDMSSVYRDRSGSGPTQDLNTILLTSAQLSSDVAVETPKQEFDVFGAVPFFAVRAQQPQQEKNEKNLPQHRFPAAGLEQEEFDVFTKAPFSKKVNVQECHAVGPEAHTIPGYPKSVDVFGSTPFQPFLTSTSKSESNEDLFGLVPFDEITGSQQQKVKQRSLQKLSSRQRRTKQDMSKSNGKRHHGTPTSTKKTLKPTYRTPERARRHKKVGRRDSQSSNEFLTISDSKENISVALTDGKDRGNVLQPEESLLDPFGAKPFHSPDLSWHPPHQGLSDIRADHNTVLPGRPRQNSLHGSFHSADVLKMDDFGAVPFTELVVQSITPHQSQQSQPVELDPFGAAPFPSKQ
Chain of JNK2 (P45984 whole entry): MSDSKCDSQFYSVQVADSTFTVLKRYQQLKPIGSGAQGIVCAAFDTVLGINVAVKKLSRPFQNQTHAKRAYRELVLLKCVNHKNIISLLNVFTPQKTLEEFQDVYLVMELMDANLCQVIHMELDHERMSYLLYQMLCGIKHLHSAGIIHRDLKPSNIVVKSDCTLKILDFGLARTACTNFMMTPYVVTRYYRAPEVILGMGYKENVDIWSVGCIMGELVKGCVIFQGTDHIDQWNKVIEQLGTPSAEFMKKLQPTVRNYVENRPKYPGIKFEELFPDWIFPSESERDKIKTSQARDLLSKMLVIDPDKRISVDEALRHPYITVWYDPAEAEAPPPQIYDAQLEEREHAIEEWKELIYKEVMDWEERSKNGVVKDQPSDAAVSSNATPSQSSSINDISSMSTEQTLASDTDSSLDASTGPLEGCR
Chain of CK2a1 (P68400 whole entry): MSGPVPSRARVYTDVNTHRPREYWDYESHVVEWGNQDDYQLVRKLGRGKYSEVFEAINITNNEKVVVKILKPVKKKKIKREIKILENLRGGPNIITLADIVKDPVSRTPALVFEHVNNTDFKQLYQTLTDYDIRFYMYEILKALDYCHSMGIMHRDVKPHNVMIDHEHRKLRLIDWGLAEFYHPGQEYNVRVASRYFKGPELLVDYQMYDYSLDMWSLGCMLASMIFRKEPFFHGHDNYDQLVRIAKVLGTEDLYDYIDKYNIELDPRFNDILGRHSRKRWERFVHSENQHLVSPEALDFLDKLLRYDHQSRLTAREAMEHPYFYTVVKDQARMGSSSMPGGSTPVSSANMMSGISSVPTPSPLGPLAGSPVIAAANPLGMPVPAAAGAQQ
Chain of CaMK1d (Q8IU85 whole entry): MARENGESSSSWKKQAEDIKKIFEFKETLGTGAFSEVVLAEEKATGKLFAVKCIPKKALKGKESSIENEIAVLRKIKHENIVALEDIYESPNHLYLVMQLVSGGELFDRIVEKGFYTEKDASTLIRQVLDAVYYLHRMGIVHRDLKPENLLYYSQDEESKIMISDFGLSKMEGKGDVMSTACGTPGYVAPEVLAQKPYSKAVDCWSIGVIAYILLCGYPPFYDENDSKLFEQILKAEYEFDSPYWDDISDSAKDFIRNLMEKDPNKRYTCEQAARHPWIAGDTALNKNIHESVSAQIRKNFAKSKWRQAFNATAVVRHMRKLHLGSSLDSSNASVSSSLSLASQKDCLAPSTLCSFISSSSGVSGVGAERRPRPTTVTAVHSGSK
Chain of OSR1 (O95747 whole entry): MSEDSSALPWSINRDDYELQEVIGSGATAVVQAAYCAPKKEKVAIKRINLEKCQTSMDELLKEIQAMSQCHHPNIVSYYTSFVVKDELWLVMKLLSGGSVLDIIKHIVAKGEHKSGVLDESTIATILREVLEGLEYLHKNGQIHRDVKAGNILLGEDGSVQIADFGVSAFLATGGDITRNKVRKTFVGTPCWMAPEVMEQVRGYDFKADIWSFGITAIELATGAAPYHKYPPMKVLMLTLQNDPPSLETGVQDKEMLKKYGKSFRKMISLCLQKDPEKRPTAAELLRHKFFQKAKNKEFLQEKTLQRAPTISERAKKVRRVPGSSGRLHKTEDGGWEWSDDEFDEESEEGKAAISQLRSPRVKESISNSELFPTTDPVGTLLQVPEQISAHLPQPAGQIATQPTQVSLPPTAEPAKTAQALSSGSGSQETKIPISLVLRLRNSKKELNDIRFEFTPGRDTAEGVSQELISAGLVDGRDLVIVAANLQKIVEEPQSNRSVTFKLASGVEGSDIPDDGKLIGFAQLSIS

Cc1cccc(-c2ccc(-c3cc4cnc(NC(CO)CO)nc4n(CCCCN)c3=O)c(Cl)c2)n1 [compound 24, 8-(4-Aminobutyl)-6-(2-chloro-4-(6-methylpyridin-2-yl)phenyl)-2-((1,3-dihydroxypropan-2-yl)amino)pyrido[2,3-d]pyrimidin-7(8H)-one]
ΔTm MR24 (24) (CaMK2d): -0.2 °C

Cc1cccc(-c2ccc(-c3cc4cnc(NCCCc5ccc(N)cc5)nc4n(CCCCN)c3=O)c(Cl)c2)n1 [compound 25, 8-(4-Aminobutyl)-2-((3-(4-aminophenyl)propyl)amino)-6-(2-chloro-4-(6-methylpyridin-2-yl)phenyl)pyrido[2,3-d]pyrimidin-7(8H)-one]
ΔTm 25 (CaMK2d): -0.2 °C

CNc1ncc2cc(-c3ccc(-c4cccc(C)n4)cc3Cl)c(=O)n(CCC3CCNCC3)c2n1 [compound 22, 6-(2-Chloro-4-(6-methylpyridin-2-yl)phenyl)-2-(methylamino)-8-(2-(piperidin-4-yl)ethyl)pyrido[2,3-d]pyrimidin-7(8H)-one]
ΔTm 22 (CaMK2d): 0.0 °C

COc1cc(N2CCN(C)CC2)ccc1Nc1ncc2cc(-c3ccc(-c4cccc(C)n4)cc3Cl)c(=O)n(CCCCN)c2n1 [compound 36, 8-(4-Aminobutyl)-6-(2-chloro-4-(6-methylpyridin-2-yl)phenyl)-2-((2-methoxy-4-(4-methylpiperazin-1-yl)phenyl)amino)pyrido[2,3-d]pyrimidin-7(8H)-one]
dTm 36 (BIKE): 1.0 °C | dTm 36 (BRD4): -3.5 °C | dTm 36 (CK2a1): 0.2 °C | dTm 36 (CaMK1d): 5.6 °C | dTm 36 (EphB1): 5.5 °C | dTm 36 (JNK2): -0.3 °C | dTm 36 (MARK4): 7.4 °C | dTm 36 (OSR1): 3.4 °C | dTm 36 (SRPK1): 0.0 °C

COc1cc(N2CCOCC2)ccc1Nc1ncc2cc(-c3ccc(-c4cccc(C)n4)cc3Cl)c(=O)n(CCCCN)c2n1 [compound 35, 8-(4-Aminobutyl)-6-(2-chloro-4-(6-methylpyridin-2-yl)phenyl)-2-((2-methoxy-4-morpholino-phenyl)amino)pyrido[2,3-d]pyrimidin-7(8H)-one]
dTm 35 (BIKE): 1.3 °C | dTm 35 (BRD4): -3.6 °C | dTm 35 (CK2a1): -0.1 °C | dTm 35 (CaMK1d): 5.8 °C | dTm 35 (EphB1): 6.0 °C | dTm 35 (JNK2): 0.1 °C | dTm 35 (MARK4): 6.6 °C | dTm 35 (OSR1): 2.6 °C | dTm 35 (SRPK1): -0.5 °C

Cc1cccc(-c2ccc(-c3cc4cnc(Nc5ccc(F)c(CO)c5)nc4n(CCCCN)c3=O)c(Cl)c2)n1 [compound 33, 8-(4-Aminobutyl)-6-(2-chloro-4-(6-methylpyridin-2-yl)phenyl)-2-((4-fluoro-3-(hydroxymethyl)phenyl)amino)pyrido[2,3-d]pyrimidin-7(8H)-one]
dTm 33 (BIKE): 7.2 °C | dTm 33 (BRD4): -3.7 °C | dTm 33 (CK2a1): -0.4 °C | dTm 33 (CaMK1d): 5.9 °C | dTm 33 (EphB1): 6.5 °C | dTm 33 (JNK2): 3.0 °C | dTm 33 (MARK4): 10.3 °C | dTm 33 (OSR1): 2.4 °C | dTm 33 (SRPK1): -0.2 °C

CNc1ncc2cc(-c3ccc(-c4cccc(C)n4)cc3Cl)c(=O)n(CCCCN)c2n1 [compound 20, MRLW5]
ΔTm MRLW5 (20) (CaMK2d): 0.1 °C

Cc1cccc(-c2ccc(-c3cc4cnc(NCCCN5CCOCC5)nc4n(CCCCN)c3=O)c(Cl)c2)n1 [compound 26, MR26]
ΔTm MR26 (26) (CaMK2d): -0.1 °C

CNc1ncc2cc(-c3ccc(-c4cccc(C)n4)cc3Cl)c(=O)n(C[C@H]3CC[C@H](N)CC3)c2n1 [compound 23, 23]
ΔTm 23 (CaMK2d): -0.2 °C

COc1ccc(O)c(Nc2ncc3cc(-c4ccc(-c5cccc(C)n5)cc4Cl)c(=O)n(CCCCN)c3n2)c1 [compound 34, 8-(4-Aminobutyl)-6-(2-chloro-4-(6-methylpyridin-2-yl)phenyl)-2-((2-hydroxy-5-methoxy-phenyl)amino)pyrido[2,3-d]pyrimidin-7(8H)-one]
dTm 34 (BIKE): 0.8 °C | dTm 34 (BRD4): -1.8 °C | dTm 34 (CK2a1): 0.5 °C | dTm 34 (CaMK1d): 3.9 °C | dTm 34 (EphB1): 5.2 °C | dTm 34 (JNK2): 0.3 °C | dTm 34 (MARK4): 4.6 °C | dTm 34 (OSR1): 0.4 °C | dTm 34 (SRPK1): 0.1 °C
